Source: publication PMC12592400, “A unique inhibitor conformation selectively targets the DNA polymerase PolC of Gram-positive priority pathogens” (Nature Communications, 2025)
Converted amounts (≈) assume the structure as drawn. Where two headings read alike, the source gives them in different places.

Assays:
[1] = test system: Escherichia coli ATCC 25922; experiment: Broth microdilution MIC; assay type: cell-based
Description: (§1) Minimal inhibitory concentrations (MICs) were determined by WuXi Apptec, on behalf of Acurx Pharmaceuticals, Inc., for the Gram-positive pathogens: Enterococcus faecium ATCC 700221 (VRE; vancomycin-resistant), Enterococcus faecalis ATCC 29212, Staphylococcus aureus NRS384 (MRSA; methicillin-resistant), Staphylococcus aureus ATCC 29213 (MSSA; methicillin-sensitive), and Streptococcus pneumoniae ATCC 49619 (PRSP; penicillin-resistant). As a control, Gram-negative Escherichia coli ATCC 25922 was included. All strains were obtained from ATCC with the exception of Staphylococcus aureus NRS384, which was obtained from NARSA (Network on Antimicrobial Resistance in Staphylococcus aureus, now part of BEI resources). Bacteria were cultured according to the manuals provided by the suppliers and stored in 25% glycerol (final concentration) at –80 °C.
(§2) Bacterial strains were streaked out onto MHA plates (Mueller-Hinton II Agar; BD-211438) and incubated at 37 °C for 20 h except for S. pneumoniae and Enterococci, which were streaked on blood agar (Huankai-24070). S. pneumoniae was incubated in 5% CO2. Single colonies were suspended in 5 mL sterile saline, the turbidity was adjusted to 0.20 (Siemens MicroScan turbidity metre; equal to ~1.0 × 10^8 colony forming units (CFU)/mL) and then diluted 200x in MHIIB (Mueller-Hinton II […] (BD-211438)) medium. The MHIIB media was supplemented with 5% Lysed Horse Blood (Shanghai YuanMu Biological Technology Co. Ltd. YM-U161) for S. pneumoniae.
(§3) ACX compounds were dissolved in pure DMSO (Sigma 276855) to a concentration of 20 mg/mL. From this, twofold serial dilutions (from […]) in DMSO were transferred to a 96-well source-plate (Axygen-wipp02280) with pure DMSO as a control. 2 µL from the source plate was then transferred into 96-well culture plates (Costar 3788) and inoculated with 198 µL of the bacterial suspension so that each well contained ~5.0 × 10^5 CFU/mL bacteria, 1% DMSO and serially diluted compounds at 0 µg/mL and 0.0625-64 µg/mL in 100 µl medium. For NRS384, which was tested in a separate experiment, 99 µL of bacterial suspension was added to 1 µL of compound. The plates were incubated in ambient atmosphere at 37 °C for 20 h.

[2] = test system: Staphylococcus aureus ATCC 29213 (MSSA; methicillin-sensitive); experiment: Broth microdilution MIC; assay type: cell-based; conditions: read-out: Measured MIC
Description: as §1, §2, §3

[3] = test system: Staphylococcus aureus NRS384 (MRSA; methicillin-resistant); experiment: Broth microdilution MIC; assay type: cell-based; conditions: read-out: Measured MIC
Description: as §1, §2, §3

[4] = test system: Streptococcus pneumoniae ATCC 49619 (PRSP; penicillin-resistant); experiment: Broth microdilution MIC; assay type: cell-based; conditions: read-out: Measured MIC
Description: as §1, §2, §3

[5] = test system: Enterococcus faecium ATCC 700221 (VRE; vancomycin-resistant); experiment: Broth microdilution MIC; assay type: cell-based; conditions: for MIC: Enterococcus faecium, read-out: Measured MIC; for Measured MIC: Table 2, polC WT, strain ATCC 700221
Description: as §1, §2, §3

[6] = test system: Enterococcus faecalis ATCC 29212; experiment: Broth microdilution MIC; assay type: cell-based
Description: as §1, §2, §3

[7] = test system: E. faecium strains with polC mutations (A1281T, F1276I, F1276L, F1276S); experiment: Cross-resistance MIC of reduced susceptible E. faecium strains; assay type: cell-based, Enterococcus faecium; conditions: for raise of MIC by A1281T: E. faecium polC A1281T versus WT (Table 2); for MIC: Enterococcus faecium
Description: Strains with reduced susceptibility to ACX compounds were generated by WuXi Apptec on behalf of Acurx Pharmaceuticals, Inc., using E. faecium ATCC 700221 as parental strain.
Agar MICs for the wild-type strain were determined on Blood agar (Huankai). Compounds and linezolid were dissolved in 100% DMSO and vancomycin in ultrapure water. Strains were inoculated onto agar plates, incubated at 37 °C for 20-24 h after which colonies were suspended in sterile 0.9% saline at different bacterial concentrations. 5 μL of bacterial suspensions was individually spotted on agar plates supplemented with compounds at different concentrations, resulting in final concentrations of 10^–1, 10^–2, 10^–3, 10^–4, 10^–5, 10^–6, and 10^–7 per spot. After incubation for 20-24 h, bacterial growth was assessed by visual inspection.
For frequency of resistance (FOR) studies, colonies from the agar plate were suspended into sterile 0.9% saline to get 10^8-10^9 CFU bacterial cells per mL. […] The suspensions were also serially diluted with 0.9% saline and spotted onto agar to determine the actual inoculum. All agar plates were incubated at 37 °C for 48 h. FOR was defined as colony number on each compound-containing plate per CFU number of actual inoculum. Resistant colonies were subcultured on the corresponding compound plates to confirm that colonies were resistant and stable.
Confirmed resistant colonies were used for cross-resistance studies, as described above.
Paired-end short read sequencing data from selected mutants (generated by BGISEQ) as well as the corresponding wild-type parental strain was analysed against the reference genomes for E. faecium strain ATCC 700221 (https://genomes.atcc.org/genomes/f9d13a716ccb4f78) using Geneious R10.2.6 (Biomatters Ltd). Variants were called using the Find Variants/SNPs function with a minimum coverage of 10 and a minimum frequency of 0.8. […] This identified the following mutations in the polC gene: D1103Y in strain Efa4; F1276L in strains Efa030, Efa038, and Efa039; F1276I in strains Efa1 and Efa037; F1276S in strain Efa3; A1281T in strains Efa036, Efa040 and Efa041. Strains Efa036, Efa039, and Efa040 each had only one polymorphism identified.

[8] = ATCC25922, E. coli ATCC 25922, Table 1, single replicate, read-out: Measured MIC
[9] = S. aureus ATCC 29213, Table 1, single replicate
[10] = S. aureus MRSA NRS 384, Table 1, independent experiment
[11] = S. pneumoniae PRSP ATCC 49619, Table 1, single replicate
[12] = E. faecium VRE ATCC 700221, Table 1, single replicate
[13] = ATCC29212, E. faecalis ATCC 29212, Table 1, single replicate, read-out: Measured MIC
[14] = read-out: Measured MIC, polC A1281T, strain Efa036, selected on 2 mg/L ACX-641
[15] = read-out: Measured MIC, polC A1281T, strain Efa040, selected on 4 mg/L ACX-671
[16] = read-out: Measured MIC, polC F1276I, strain Efa037, selected on 4 mg/L ACX-641
[17] = read-out: Measured MIC, polC F1276L, strain Efa030, selected on 16 mg/L ACX-728
[18] = read-out: Measured MIC, polC F1276S, strain Efa3, selected on 16 mg/L ACX-728

SMILES | MIC [1, 8] | MIC [2, 9] | MIC [3, 10] | MIC [4, 11] | MIC [5, 12] | Measured MIC [5] | increased potency compared to IBZ ([5]; against Gram-positive bacteria, including MRSA and VRE (Table 1)) | MIC [6, 13] | raise of MIC by A1281T [7] | MIC [7, 14] | MIC [7, 15] | MIC [7, 16] | MIC [7, 17] | MIC [7, 18] | MIC ([1]; ATCC25922, read-out: Measured MIC) | MIC [2] | MIC [3] | MIC [4] | MIC [5] | MIC ([6]; ATCC29212, read-out: Measured MIC)
O=c1[nH]c(NCc2ccc3c(c2)OC(F)(F)O3)nc2c(F)nn(CCO)c12 [ACX-801, 5-(((2,2-difluorobenzo[d][1,3]dioxol-5-yl)methyl)amino)-3-fluoro-1-(2-hydroxyethyl)-1,6-dihydro-7H-pyrazolo[4,3-d]pyrimidin-7-one] | > 64 µg/mL | 2 µg/mL (≈ 5.22 µM) | 2 µg/mL (≈ 5.22 µM) | 4 µg/mL (≈ 10.4 µM) | 1 µg/mL (≈ 2.61 µM) | 1 µg/mL | 2- to 4 fold | 2 µg/mL (≈ 5.22 µM) | up to 32 fold | 16 µg/mL | 32 µg/mL | > 64 µg/mL | 64 µg/mL | 32 µg/mL | – | – | – | – | – | –
O=c1[nH]c(NCc2ccc(Cl)c(Cl)c2)nc2ncn(CCN3CCOCC3)c12 [IBZ, N^2-(3,4-dichlorobenzyl)-7-(2-[1-morpholinyl]ethyl)guanine] | > 64 µg/mL | 8 µg/mL (≈ 18.9 µM) | 8 µg/mL (≈ 18.9 µM) | 2 µg/mL (≈ 4.72 µM) | 2 µg/mL (≈ 4.72 µM) | 2 µg/mL | – | 8 µg/mL (≈ 18.9 µM) | up to eightfold | 16 µg/mL | 8 µg/mL | > 64 µg/mL | > 64 µg/mL | 16 µg/mL | – | – | – | – | – | –
CC(=O)NC[C@H]1CN(c2ccc(N3CCOCC3)c(F)c2)C(=O)O1 [LZD, linezolid] | – | – | – | – | – | 4 µg/mL | – | – | – | 4 µg/mL | 4 µg/mL | 4 µg/mL | 4 µg/mL | 4 µg/mL | > 64 µg/mL | 4 µg/mL (≈ 11.9 µM) | 2 µg/mL (≈ 5.93 µM) | 1 µg/mL (≈ 2.96 µM) | 4 µg/mL (≈ 11.9 µM) | 2 µg/mL (≈ 5.93 µM)
